Measurements published in ChEMBL document CHEMBL5634117 (Eur J Med Chem, 2023).

How the values were obtained:
Type in all cases: functional
K562 [1] = experiment: Induction of apoptosis in human K562 cells assessed as late apoptotic cells at 2.56 uM incubated for 24 hrs by annexinV and propidium iodide staining based flow cytometry analysis (reference value: 0.82%)
K562 [2] = experiment: Induction of cell cycle arrest in human K562 cells assessed as accumulation of cells at G2/M phase at 2.56 uM measured after 24 hrs by PI staining based flow cytometry analysis (reference value: 29.09%)
K562 [3] = experiment: Induction of cell cycle arrest in human K562 cells assessed as accumulation of cells at S phase at 0.64 uM measured after 24 hrs by PI staining based flow cytometry analysis (reference value: 21.74%)
K562 [4] = experiment: Induction of cell cycle arrest in human K562 cells assessed as accumulation of cells at S phase at 2.56 uM measured after 24 hrs by PI staining based flow cytometry analysis (reference value: 21.74%)
K562 [5] = experiment: Induction of cell cycle arrest in human K562 cells assessed as accumulation of cells at G0/G1 phase at 0.64 uM measured after 24 hrs by PI staining based flow cytometry analysis (reference value: 46.71%)
K562 [6] = experiment: Induction of cell cycle arrest in human K562 cells assessed as accumulation of cells at SubG1 phase at 2.56 uM measured after 24 hrs by PI staining based flow cytometry analysis (reference value: 2.48%)
K562 [7] = experiment: Induction of cell cycle arrest in human K562 cells assessed as accumulation of cells at G2/M phase at 5 uM measured after 24 hrs by PI staining based flow cytometry analysis (reference value: 29.44%)
K562 [8] = experiment: Induction of apoptosis in human K562 cells assessed as late apoptotic cells at 2.5 uM incubated for 24 hrs by annexinV and propidium iodide staining based flow cytometry analysis (reference value: 1.34%)

With `CC(C)(C)n1cc(-c2ccnc(NCCCNS(=O)(=O)c3ccc(Cl)cc3)c2)c(-c2cccc(O)c2)n1` as the compound, how does the Activity (K562 [1]) read?
Its Activity is 0.37%.

What does the source list for `O=C1c2ccccc2-c2n[nH]c3cccc1c23`?
Activity (K562 [2]): 37.88%; Activity (K562 [3]): 18.56%; Activity (K562 [4]): 21.55%; Activity (K562 [5]): 27.69%; Activity (K562 [6]): 2.85%; Activity (K562 [7]): 47.08%; Activity (K562 [8]): 3.86%
